Results on three compounds are retold here after patent US7144891B2, “Benzo[b ]pyrano[3,2- h ]acridin-7-one cinnamate compounds” (Les Laboratoires Servier, priority 2004, dated 2006).

The subject of data set [1] is C38 adenocarcinoma of the colon. Nature of the data set: In vivo anti-tumour activity with respect to C38 adenocarcinoma of the colon. As to conditions: i.v. once per week for 3 weeks (days 10, 17, 24), s.c. C38 tumour in B6D2F1 mice. On the procedure: Anti-tumour Activity with Respect to C38 Adenocarcinoma of the Colon
Tumour fragments of C38 adenocarcinoma of the colon weighing approximately 30 mg were implanted under the skin of B6D2F1 mice (Iffa Credo, France) on day 0.
After growth of the tumour, the mice were divided into control (18 animals) and treated (6 or 7 animals) groups, which were homogeneous with respect to tumour size. The products were administered by the i.v. route once per week for 3 weeks (on days 10, 17 and 24), at their Maximum Tolerated Dose (MTD), MTD/2 and MTD/4.
The tumours were measured twice a week and the tumour volumes were calculated according to the following formula: volume (mm^3)=length (mm)×breadth (mm^2)/2. The anti-tumour activity is expressed as % T/C: […]
V0 and Vt being the initial volume of the tumour and its volume at measurement time t, respectively.
The optimum dose is the dose giving the lowest T/C value without toxicity (early death or weight loss greater than 20%).

For data set [2] the following is noted: general statement, limits bioavailability and i.v. use; cited from earlier work.
The subject of data set [3] is L1210 murine leukaemia cells. Put plainly: In vitro cytotoxicity, Microculture Tetrazolium Assay, L1210. The data set is classed as cell-based. As to conditions: L1210, 2 days incubation; read-out: IC50 (concentration of cytotoxic agent which inhibits proliferation of the treated cells by 50%). The procedure: (§1) Two cell lines were used • 1 murine leukaemia: L1210, • 1 human epidermoid carcinoma: KB-3-1
(§2) The cells are cultured in RPMI 1640 complete culture medium containing 10% foetal calf serum, 2 mM glutamine, 50 units/ml of penicillin, 50 μg/ml of streptomycin and 10 mM Hepes, pH=7.4. The cells are distributed on microplates and are exposed to the cytotoxic compounds. The cells are then incubated for 2 days (L1210) or 4 days (KB-3-1). The number of viable cells is then quantified by a colorimetric assay, the Microculture Tetrazolium Assay (Cancer Res. 1987, 47, 939–942).
(§3) The results are expressed in terms of the IC50 (the concentration of cytotoxic agent which inhibits proliferation of the treated cells by 50%).

Data set [4] relates to KB-3-1 human epidermoid carcinoma cells. Nature of the data set: In vitro cytotoxicity, Microculture Tetrazolium Assay, KB-3-1. It counts as cell-based. The settings on record: KB-3-1, 4 days incubation; read-out: IC50 (concentration of cytotoxic agent which inhibits proliferation of the treated cells by 50%). The procedure:
as §1, §2, §3

Structures are written as SMILES.

With `COc1cc2c(c3c1c(=O)c1ccccc1n3C)C=CC(C)(C)O2` [acronycine, reference compound], in data set [1] (optimum dose of 100 mg/kg), the “anti-tumour activity (% T/C)” value is 27%. In data set [2], the solubility entry is recorded as “low”.

As for `COc1cc2c(c3c1c(=O)c1cc4ccccc4cc1n3C)[C@@H](OC(C)=O)[C@@H](OC(=O)C=Cc1ccccc1)C(C)(C)O2` (racemic) [Example 2, (±)-cis-1-Acetoxy-2-cinnamoyloxy-6-methoxy-3,3,14-trimethyl-1,2,3,14-tetrahydro-1H-benzo[b]pyrano[3,2-h]acridin-7-one], the IC50 in data set [3] came to 590 nM; in data set [4], 151 nM.

For the compound `COc1cc2c(c3c1c(=O)c1cc4ccccc4cc1n3C)[C@@H](OC(C)=O)[C@@H](OC(=O)C=Cc1ccc(Cl)c(Cl)c1)C(C)(C)O2` (single isomer, unassigned) [Example 33, (±)-cis-1-Acetoxy-2-(3,4-dichlorocinnamoyloxy)-6-methoxy-3,3,14-trimethyl-1,2,3,14-tetrahydro-1H-benzo[b]pyrano[3,2-h]acridin-7-one (Enantiomer β)], the “anti-tumour activity (% T/C)” value in data set [1] (optimum dose of 4 mg/kg) came out at 50%.
